This assay deals with cAMP-dependent protein kinase catalytic subunit alpha (Bos taurus, UniProt P00517). The assay can be described thus: PKA Inhibition Assay. From the text: IC50 is the inhibitor concentration, which inhibits 50% of PKA activity that catalyzes the transfer of the terminal phosphate from [gamma-32P] labeled ATP to a synthetic kemptide peptide substrate.

Each structure is given as a SMILES string.

We go through three compounds from BindingDB's records for doi:10.1021/jm00040a015 (Pfizer, 1994).

What is called IC50 is the midpoint of a concentration-inhibition curve. The low end stands for greater potency, the high end for weaker potency. Regarding `Oc1cc2nc(O)c3cc(O)c(O)cc3c2cc1O` [2,3,8,9-tetrahydroxy-5,6-dihydrophenanthridin-6-one], the IC50 (pH 7.4, 30 °C) is more than 800 µM.

The compound `O=S(=O)(c1ccccc1)n1c2cc(O)c(O)cc2c2cc(O)c(O)cc21` [9-(benzenesulfonyl)-9H-carbazole-2,3,6,7-tetrol] yielded an IC50 of more than 600 µM.

`CCn1c(=O)c2cc(O)c(O)cc2c2cc(O)c(O)cc21` [5-ethyl-2,3,8,9-tetrahydroxy-5,6-dihydrophenanthridin-6-one] returned an IC50 (pH 7.4, 30 °C) of more than 2000 µM.
